Assay results: patent US9587220B2, “Method for inducing cardiac differentiation of pluripotent stem cell” (Kyoto University, priority 2012, dated 2017)
Entries after “also recorded” stand apart in the source; their conditions may differ.

Columns and labels:
Type in all cases: cell-based, human
[1] = test system: WNT target genes in IMR90-1 hiPSCs; test: Microarray and qPCR gene expression of WNT target genes; settings: for expression levels of WNT target genes by qPCR: 12, 24 and 72 h after treatment
Method: IMR90-1 iPSCs were cultured in cardiac differentiation medium containing serum. On Day 3, cells were treated with 10 μM KY02111 or 0.1% DMSO for 0, 12, or 24 h. Non-treated cells (0 h), cells treated with KY02111 for 12 h (KY12hr) or 24 h (KY24hr), and cells treated with 0.1% DMSO for 12 h (DMSO12hr) or 24 h (DMSO24hr) were used for microarray analysis. Total RNA was prepared using the RNeasy Mini Kit (Qiagen), according to the manufacturer's instructions. Synthesis of cDNA, in vitro transcription and biotin labeling cRNA, and hybridization to the Human Gene 1.0 ST array (Affymetrix) were performed according to Affymetrix protocols. Hybridized arrays were scanned using an Affymetrix GeneChip Scanner. Data normalization and further analysis were performed with GeneSpring GX (Agilent Technologies). Proportions of treated cells expressing genes relative to control (KY02111/DMSO) were calculated for each time point. […] The microarray data have been submitted to the Gene Expression Omnibus (GEO) public database at NCBI (GEO accession number, GSE33622).
(§1) Total RNA was isolated with an RNeasy Mini Kit (QIAGEN). Genomic DNA was completely digested with DNase I (Invitrogen). Total RNA (0.5 μg) was subjected to cDNA synthesis using the SuperScript III Reverse Transcriptase (Invitrogen). qRT-PCR was performed in triplicate, using SYBER GREEN PCR Master Mix on a 7500 Real Time PCR System (Applied Biosystems). The cycling conditions were as follows: 10 min at 95° C.; 40 cycles, each consisting of 15 s at 95° C.; 1 min at 60° C. Total RNA from human adult heart tissue (BioChain) was used to evaluate the expression levels of cardiac marker genes for cardiomyocytes derived from hPSCs. All values were normalized with respect to GAPDH expression level and expressed relative to the corresponding values in human adult hearts (100%).

[2] = test system: TCF promoter activity (canonical WNT signaling) in IMR90-1 hiPSCs; test: TOPflash TCF reporter-luciferase assay in hiPSCs; settings: 10 μM, with 60 ng/ml Wnt3a or 3 μM BIO
Method: (§2) For the TCF reporter assay, IMR90-1 hiPSCs were cultured in the serum-containing differentiation culture, as described above, and transfected with TOPFlash plasmid (Millipore 21-170) and pRL-SV40 plasmid (Renilla luciferase transfection control, Promega E1980) on Day 2, using FuGENE HD transfection Reagenet (Promega E2311). After 24 h, 10 μM KY02111, 10 μM XAV939, or 10 μM IWP-2 was added to the medium, along with either 60 ng ml^−1 of mouse Wnt3a (Wako 232-02421) or 3 μM BIO. After 48 h of transfection (Day 4), luciferase activities were measured using a Dual-Luciferase Reporter 1000 Assay System kit (Promega E1980) and a 2030 ARVO X3 plate reader (PerkinElmer). Luciferase activities were normalized to the luminescence of the transfection control, Rennila luciferase, according to the kit protocol. For experiments using HEK293 cells, the cells were cultured in 10% FBS DMEM medium, and transfected with TOPflash and pRL-SV40 plasmid, using FuGENE HD. After 24 h, the transfected cells were seeded onto 96-well plates (10,000 cells well^−1) in medium containing 10 μM KY02111, 10 μM XAV939, or 10 μM IWP-2, along with 3 μM BIO or 60 ng ml^−1 mouse Wnt3a. Luciferase activities were measured 48 h after transfection by the procedure described above.

[3] = test system: TCF promoter activity in HEK293 cells; test: TOPflash TCF reporter assay in HEK293 cells; settings: 10 μM
Method: as §2

[4] = test system: IMR90-1 hiPSCs; test: Cardiac differentiation with BIO and CHIR99021 (Days 0-3) followed by WNT inhibitors, serum-free or serum medium
Method: After pre-culture in Petri dishes as described above, cell aggregates were attached to culture dishes coated with gelatin (Sigma G2625) or human laminin 211 (BioLamina, Sweden) at 3-10×10^5 cells cm^-2, in serum-free cardiac differentiation medium: IMDM (Sigma) containing 1% MEM non-essential amino acid solution (Sigma), 1% Penicillin-Streptomycin (Gibco), 2 mM L-glutamine (Sigma), 0.5 mM L-carnitine (Sigma), 0.001% 2-Mercapcoethanol (Gibco), and 1-2% bovine serum albumin (Wako, Japan) or 0.4% human serum albumin (Sigma), with 5 μM CHIR99021 (Axon) and 2 μM BIO (Calbiochem). On Days 3-9, 10 μM KY02111 and/or other WNT inhibitors (XAV939 and/or IWP-2) were added to cell cultures, and the medium was changed every 2 d. On Day 15, the cardiac colonies were incubated with the protease solution for 5-10 min, until all colonies were detached from the bottom of the wells. The cardiac colonies were transferred into 15 ml tubes with cardiac differentiation medium including 0.1% albumin, and precipitated by gravity, the supernatant was removed, and the cardiac colonies were transferred to Ultra-low culture 6-well plates (Corning, YO-01835-24) with cardiac differentiation medium including 0.1% albumin. The floating cardiac colonies were maintained for more than 1 month, and the media were changed every 5 d. Cardiac colonies were dissociated by stirring for 1-2 h at 37° C. with the protease solution described above, cultured for 1 d on cover glasses coated with gelatin (Sigma), and fixed with 4% paraformaldehyde. After permeabilizing with Triton X, the cells were treated with 2% skim milk for 1-2 h, then incubated with primary antibodies for 2 h: NKX2.5 (rabbit polyclonal, 1:250; Abcam), αActinin (mouse monoclonal, 1:800; Sigma), cardiac TnT (mouse monoclonal, 1:100; Santa Cruz Biotechnology), Vimentin (mouse monoclonal, 1:800; Sigma V6630), and HCN4 (mouse monoclonal, 1:400; Abcam). The secondary antibodies used were Alexa546-conjugated anti-mouse IgG, Alexa488-conjugated anti-mouse IgG, and Alexa488-conjugated anti-rabbit IgG (1:1000; all from Molecular Probes, Invitrogen). Nuclei were visualized by DAPI. Images were captured under fluorescent microscopy (Olympus). The number of cTnT, αActinin, NKX2.5, HCN4, and Vimentin-positive cells were counted from three random areas, using the Metamorph imaging system (Molecular Devices). Approximately 1000 DAPI-stained cells were used to calculate the proportion of immunopositive cells (the number of immunopositive cells divided by the number of DAPI-stained cells). […] Cells were analyzed using a FACS CantoII flow cytometer (BD Biosciences). Data was analyzed using […] software (BD Biosciences).

[5] = test system: IMR90-1 hiPSCs; test: Number of beating colonies and total number of cardiomyocytes per well (WNT inhibitor combinations); settings: total cell number x cTnT-positive ratio, FIG. 3e
[6] = test system: KY02111-induced cardiomyocytes (KY-CMs); test: qPCR of cardiac marker and ion channel genes in KY02111-induced cardiomyocytes; settings: Days 15 and 30
Method: as §1

Structure (SMILES) | expression levels of WNT target genes by qPCR [1] | TCF promoter (luciferase) activity elevated by Wnt3a or BIO [2] | TCF promoter activity by Wnt3a ([3]; with 60 ng/ml Wnt3a) | TCF promoter activity by BIO ([3]; with 3 μM BIO) | number of beating colonies and total number of cardiomyocytes, defined medium (Alb) versus serum-containing medium (FBS) ([4]; FIG. 4e) | proportion of cTnT-positive cells by immunostaining ([4]; albumin (serum-free)) | differentiation efficiency (cTnT-positive cells) by FACS ([4]; cytokine- and serum-free conditions) [%] | differentiation efficiency (cTnT-positive cells) ([4]; with serum (FBS)) | number of genes changed >25% at both 12 and 24 h (microarray) ([1]; 10 μM, versus DMSO) [genes] | number of cardiomyocytes produced relative to the control [5] [fold] | expression of ion channel genes in KY-CMs relative to adult heart tissue [6]
Cc1ccc2nc(NC(=O)CSc3nc4c(c(=O)n3-c3ccccc3)SCC4)sc2c1 [IWP-2, reference compound] | suppressed | didn't inhibit | – | – | – | – | – | – | – | – | –
COc1ccc(CCC(=O)Nc2nc3ccc(Cl)cc3s2)cc1OC [KY02111, 2-(3-(3,4-dimethoxyphenyl)propanamide)-6-chlorobenzothiazole] | suppressed | clearly reduced luciferase activities; also recorded: inhibited | enhanced luciferase activity; also recorded: further augmented | cancelled WNT activation by BIO; also recorded: inhibited | increased more in defined medium (Alb) | 93.3%±4.4 | 90.2 | 83.7%±8.0 | 26 | 80 | equivalent to those of adult heart tissue
Oc1nc(-c2ccc(C(F)(F)F)cc2)nc2c1CSCC2 [XAV939, reference compound] | suppressed | clearly reduced luciferase activities; also recorded: inhibited | – | – | – | – | – | – | – | – | –
